Experimental data reported in ChEMBL document CHEMBL3045491, “Antituberculosis activity of hydrazones derived from 4-fluorobenzoic acid hydrazide” (2009).

Each compound was assayed on Mycobacterium tuberculosis (assay: Antitubercular activity against Mycobacterium tuberculosis H37Rv ATCC 27294 at 6.25 ug/ml by microplate alamar blue assay).
Format: functional

SMILES | inhibition at 6.25 µg/mL [%]
O=C(N/N=C/c1ccc(Cl)cc1Cl)c1ccc(F)cc1 | 62
O=C(N/N=C/c1c(Cl)cccc1Cl)c1ccc(F)cc1 | 85
O=C(N/N=C/c1cccc(F)c1)c1ccc(F)cc1 | 52
C/C(=N\NC(=O)c1ccc(F)cc1)c1ccc[nH]1 | 66
CN(C)CCCOc1ccc(/C=N/NC(=O)c2ccc(F)cc2)cc1 | 58
C/C(=N\NC(=O)c1ccc(F)cc1)c1cccs1 | 50
C/C(=N\NC(=O)c1ccc(F)cc1)c1ccccc1 | 59
C/C(=N\NC(=O)c1ccc(F)cc1)c1ccncc1 | 53
C/C(=N\NC(=O)c1ccc(F)cc1)c1ccc(Br)s1 | 59
C/C(=N\NC(=O)c1ccc(F)cc1)c1ccc(Cl)s1 | 64
O=C(N/N=C/c1cccc(Oc2ccccc2)c1)c1ccc(F)cc1 | 84
O=C(N/N=C/c1cc(Cl)cc(Cl)c1O)c1ccc(F)cc1 | 69
C=C/C(C)=N/NC(=O)c1ccc(F)cc1 | 56
CC/C(=N\NC(=O)c1ccc(F)cc1)c1ccccc1 | 53
O=C(N/N=C/c1cc(Cl)cc(Cl)c1)c1ccc(F)cc1 | 65
C/C(=N\NC(=O)c1ccc(F)cc1)c1ccco1 | 53
